Consider 8 molecules from US8623855B2, “Azetidinone compounds and medical use thereof” (Zhejiang Hisun Pharmaceutical Co., Ltd., priority 2009, dated 2014).

The experiment has as its system hypercholesterolemia golden hamster model. As to the kind of experiment: In vivo pharmacodynamic screening in hypercholesterolemia model of golden hamster (plasma TC and LDL-C). The settings on record: for inhibition in vivo at 1 mg/kg / inhibition in vivo at 10 mg/kg / inhibition in vivo at 5 mg/kg / inhibition in vivo at 3 mg/kg: Mesocricetus auratus, po, 168 h; for LDL after administration / TC after administration / LDL-C after administration: 1 week, plasma; for reduction of plasma TC and LDL-C levels (in words): golden hamster hypercholesterolemic model, significant statistical difference; for effect of lowering cholesterol (screening result in words): in vivo pharmacodynamic screening test, Ezetimibe as positive control; for LDL-C before administration / TC before administration: baseline of group dosed 10 mg/kg; for efficacy compared with the positive control (in words): positive control Ezetimibe. How it is done:
1. Establishment of Hypercholesterolemia Model of Golden Hamster:
The animals were subjected to acclimation feeding for 1 week with free feeding and drinking under a lighting condition of 10 h/14 h. On Day 8, the animals were raised with high fat feed (consisting of 0.5% cholesterol, 20% palm oil, 79.5% basal feed) for 1 week. Then, each animal was anesthetized by ether. After weighing, 0.5 ml blood was obtained from orbital vein, anticoagulated with heparin and centrifuged at 5000 rpm for 10 min. The plasma was collected and the levels of plasma TC (total cholesterol) and LDL-C (low density lipoprotein cholesterol) were determined by automatic biochemical analyzer. Animals with plasma TC of 9-15 mmol/L were selected as model animals (refer to the following reference for the method of animal modeling: Burrier, R. E., Smith, A. A., Mcgregor, D. G, Hoos, L. M., Zilli, D. L., Davis, H. R. The effect of acyl CoA: cholesterol acyltransferase inhibition on the uptake, esterification and secretion of cholesterol by the hamster small intestine. J. Pharm. Exp. Ther., 1995, 272, 156-163).
The animals were grouped according to TC and LDL-C levels and weight with 6 animals per group. Ezetimibe was used as positive control. The animals were intragastrically administered at a volume of 5 ml/kg for 1 week. Each animal was anesthetized by ether. After weighing, 0.5 ml blood was taken from orbital vein, anticoagulated with heparin, and centrifuged at 5000 rpm for 10 min. The plasma was collected and plasma TC (total cholesterol) and LDL-C (low density lipoprotein cholesterol) levels were determined by automatic biochemical analyzer to evaluate the efficacy of the compounds.

[1] abbreviates: Table 10, read-out: Reducing LDL-C %.
Where [2] appears, read: Table 10, read-out: Reducing TC %.
[3] abbreviates: Table 6, read-out: Reducing LDL-C %.
[4] abbreviates: Table 6, read-out: Reducing TC %.
Setting [5] is: Table 12, read-out: Reducing LDL-C %.
[6] abbreviates: Table 12, read-out: Reducing TC %.
Setting [7] is: Table 11, 10 mg/kg intragastric.
Where [8] appears, read: Table 8, read-out: Reducing LDL-C %.
Setting [9] is: Table 8, read-out: Reducing TC %.

The structures appear in SMILES notation. Read-outs that look alike come from different tables or passages of the source.

In the case of `O=C(Oc1ccc([C@@H]2[C@@H](C/C=C(\CO)c3ccc(F)cc3)C(=O)N2c2ccc(F)cc2)cc1)c1ccccc1` [I-5(Z), (3R,4S)-4-(4-benzoyloxyphenyl)-1-(4-fluorophenyl)-3-[(Z)-3-(4-fluorophenyl)-4-hydroxy-but-2-enyl]azetidin-2-one], the “reduction of plasma TC and LDL-C levels (in words)” value (“reduction” for short) was “can significantly reduce the plasma TC and LDL-C levels”; the “effect of lowering cholesterol (screening result in words)” value (from here on “effect of lowering cholesterol”) was “have the effect of lowering cholesterol”. Under setting [1], the inhibition in vivo at 1 mg/kg came out at 30.7% and the inhibition in vivo at 10 mg/kg turned out to be 68.1%. Also, under setting [2], the inhibition in vivo at 1 mg/kg came to 31.2% and the inhibition in vivo at 10 mg/kg came out at 62.7%. In addition, for the setting “Table 9, 1 mg/kg intragastric”, the LDL after administration was 2.18 mmol/L and the TC after administration stood at 10.55 mmol/L. Besides, for the setting “Table 9, 10 mg/kg intragastric”, the LDL after administration worked out at 1.0 mmol/L and the TC after administration is recorded as 5.73 mmol/L.

In the case of `CC(=O)OC/C(=C\C[C@H]1C(=O)N(c2ccc(F)cc2)[C@@H]1c1ccc(O)cc1)c1ccc(F)cc1` [I-12(Z), (3R,4S)-3-[(Z)-4-acetoxy-3-(4-fluorophenyl)-but-2-enyl]-1-(4-fluorophenyl)-4-(4-hydroxyphenyl)azetidin-2-one], the “reduction” value is “can significantly reduce the plasma TC and LDL-C levels”; the “effect of lowering cholesterol” value was “have the effect of lowering cholesterol”. In addition, under setting [3], the inhibition in vivo at 1 mg/kg is 62.8% and the inhibition in vivo at 10 mg/kg is 71.5%. Under setting [4], the inhibition in vivo at 1 mg/kg turned out to be 50.9% and the inhibition in vivo at 10 mg/kg is 54.8%. In addition, for the setting “Table 5, 1 mg/kg intragastric”, the LDL after administration is 1.58 mmol/L and the TC after administration stood at 5.29 mmol/L. Where the note is “Table 5, 10 mg/kg intragastric”, this molecule gave an LDL after administration of 1.34 mmol/L and a TC after administration of 4.86 mmol/L.

For the molecule `COc1ccc([C@@H]2[C@@H](C/C=C(\CO)c3ccc(F)cc3)C(=O)N2c2ccc(F)cc2)cc1` [I-2(Z)], the “reduction” value was “can significantly reduce the plasma TC and LDL-C levels”; the “effect of lowering cholesterol” value was “have the effect of lowering cholesterol”; the “efficacy compared with the positive control (in words)” value is recorded as “more similar to the positive control”. Under setting [5], the inhibition in vivo at 5 mg/kg turned out to be 63.4%. For the same molecule, the inhibition in vivo at 5 mg/kg under setting [6] is 62.2%. Under setting [7], this molecule gave an LDL-C after administration of 1.01 and a TC after administration of 4.82. Besides, for the setting “Table 11”, the LDL-C before administration is recorded as 2.76 ± 0.43 and the TC before administration is recorded as 12.74 ± 1.32.

Turning to `CC(=O)OC/C(=C\C[C@H]1C(=O)N(c2ccc(F)cc2)[C@@H]1c1ccc(OC(=O)c2ccccc2)cc1)c1ccc(F)cc1` [I-16(Z), (3R,4S)-3-[(Z)-4-acetoxy-3-(4-fluorophenyl)-but-2-enyl]-4-(4-benzoyloxyphenyl)-1-(4-fluorophenyl)azetidin-2-one], the “reduction” value was “can significantly reduce the plasma TC and LDL-C levels”; the “effect of lowering cholesterol” value is “have the effect of lowering cholesterol”. Besides, under setting [1], the inhibition in vivo at 1 mg/kg came to 31.7% and the inhibition in vivo at 10 mg/kg came out at 65%. Also, under setting [2], the inhibition in vivo at 1 mg/kg turned out to be 37.4% and the inhibition in vivo at 10 mg/kg turned out to be 60.9%. For the setting “Table 9, 1 mg/kg intragastric”, this molecule came in with an LDL after administration of 2.15 mmol/L and a TC after administration of 9.61 mmol/L. Also, under “Table 9, 10 mg/kg intragastric”, the LDL after administration stood at 1.1 mmol/L and the TC after administration amounted to 6.0 mmol/L.

With `Cc1ccc(C(=O)OC/C(=C\C[C@H]2C(=O)N(c3ccc(F)cc3)[C@@H]2c2ccc(O)cc2)c2ccc(F)cc2)cc1` [I-15(Z)], the “reduction” value is “can significantly reduce the plasma TC and LDL-C levels”; the “effect of lowering cholesterol” value is “have the effect of lowering cholesterol”; the “efficacy compared with the positive control (in words)” value was “more similar to the positive control”. Moreover, under setting [8], the inhibition in vivo at 1 mg/kg came out at 46.5% and the inhibition in vivo at 3 mg/kg worked out at 70.4%. Besides, under setting [9], the inhibition in vivo at 1 mg/kg was 38.1% and the inhibition in vivo at 3 mg/kg is 50.8%. Besides, for the setting “Table 7, 1 mg/kg intragastric”, the LDL after administration is given as 1.99 mmol/L and the TC after administration was 6.76 mmol/L. Where the note is “Table 7, 3 mg/kg intragastric”, this molecule registered an LDL after administration of 1.44 mmol/L and a TC after administration of 5.37 mmol/L.

Take `CC(=O)Oc1ccc([C@@H]2[C@@H](C/C=C(\CO)c3ccc(F)cc3)C(=O)N2c2ccc(F)cc2)cc1` [I-6(Z), (3R,4S)-4-(4-acetoxyphenyl)-1-(4-fluorophenyl)-3-[(Z)-3-(4-fluorophenyl)-4-hydroxy-but-2-enyl]azetidin-2-one]: the “reduction” value was “can significantly reduce the plasma TC and LDL-C levels”; the “effect of lowering cholesterol” value was “have the effect of lowering cholesterol”; the “efficacy compared with the positive control (in words)” value is given as “more similar to the positive control”. For the same molecule, under setting [1], the inhibition in vivo at 1 mg/kg amounted to 50.2% and the inhibition in vivo at 10 mg/kg worked out at 70.4%. Under setting [2], the inhibition in vivo at 1 mg/kg came to 51.5% and the inhibition in vivo at 10 mg/kg worked out at 65.6%. Where the note is “Table 9, 1 mg/kg intragastric”, this molecule displayed an LDL after administration of 1.57 mmol/L and a TC after administration of 7.45 mmol/L. Where the note is “Table 9, 10 mg/kg intragastric”, the LDL after administration turned out to be 0.93 mmol/L and the TC after administration worked out at 5.28 mmol/L.

Consider `O=C1[C@H](C/C=C(\CO)c2ccc(F)cc2)[C@@H](c2ccc(Oc3ccccc3)cc2)N1c1ccc(F)cc1` [I-3(Z)], for which the “reduction” value is “can significantly reduce the plasma TC and LDL-C levels”; the “effect of lowering cholesterol” value is recorded as “have the effect of lowering cholesterol”; the “efficacy compared with the positive control (in words)” value was “more similar to the positive control”. Under setting [5], the inhibition in vivo at 10 mg/kg came out at 66.3%. Also, the inhibition in vivo at 10 mg/kg under setting [6] was 50.8%. Further, under setting [7], the LDL-C after administration came to 1.14 and the TC after administration stood at 6.23. Besides, under “Table 11”, the LDL-C before administration is on record as 3.38 ± 0.84 and the TC before administration worked out at 12.67 ± 1.35.

Take `O=C(OC/C(=C\C[C@H]1C(=O)N(c2ccc(F)cc2)[C@@H]1c1ccc(O)cc1)c1ccc(F)cc1)c1ccc(F)cc1` [I-14(Z)]: the “reduction” value is “can significantly reduce the plasma TC and LDL-C levels”; the “effect of lowering cholesterol” value was “have the effect of lowering cholesterol”. Under setting [8], the inhibition in vivo at 1 mg/kg is 28.6% and the inhibition in vivo at 3 mg/kg is 52.3%. Moreover, under setting [9], the inhibition in vivo at 1 mg/kg was 13.5% and the inhibition in vivo at 3 mg/kg is 44.4%. Further, for the setting “Table 7, 1 mg/kg intragastric”, the LDL after administration was determined as 2.56 mmol/L and the TC after administration came to 9.34 mmol/L. For the same molecule, under “Table 7, 3 mg/kg intragastric”, the LDL after administration worked out at 2.01 mmol/L and the TC after administration is recorded as 6.06 mmol/L.
